Entries after “also recorded” stand apart in the source; their conditions may differ. Read-outs that look alike come from different tables or passages of the source.
What was measured:
[1] = tested on: diet-induced obesity (DIO) rat model; experiment: Changes in weights in diet-induced obesity (DIO) rat model, 4-week administration; assay type: in vivo, Sprague Dawley (SD) rats; details: 5 mg/kg oral, 4 weeks
Description: To simultaneously evaluate both the weight-loss and hypoglycemic effects of the cyclohexene derivative according to the present invention, experiments were carried out, as follows.
Specifically, male Sprague Dawley (SD) rats (approximately 4 weeks old) in a diet-induced obesity model were fed with a high-fat diet (Lab. Diet Co.) for approximately 10 weeks to induce high-fat diet-induced obesity (DIO). The rats undergoing the high-fat diet were randomly selected, and divided into groups (n=8) for respective administrations. The compounds of Comparative Examples 3 and 4 and Examples 48 and 119 were administered to the divided DIO rats each group for 4 weeks.
The weights of the DIO rats were measured twice a week during a period of administration of 4 weeks to record a change in the weights. At the end of the 4-week period of administration, a hypoglycemic effect was evaluated using an oral glucose tolerance test (OGTT), as follows.

[2] = biological target: T1, G protein-coupled receptor 119 (GPR-119) (Mesocricetus auratus, UniProt A0A1U8CD06); experiment: cAMP activity in HIT-T15 cells (cAMP dynamic kit, FRET); assay type: cell-based, hamster
T1 construct: hamster-derived β-cells containing G protein-coupled receptor 119 (GPR-119), HIT-T15 cells; host or cells: HIT-T15 (hamster pancreatic β-cells)
T1 sequence (A0A1U8CD06 1-334): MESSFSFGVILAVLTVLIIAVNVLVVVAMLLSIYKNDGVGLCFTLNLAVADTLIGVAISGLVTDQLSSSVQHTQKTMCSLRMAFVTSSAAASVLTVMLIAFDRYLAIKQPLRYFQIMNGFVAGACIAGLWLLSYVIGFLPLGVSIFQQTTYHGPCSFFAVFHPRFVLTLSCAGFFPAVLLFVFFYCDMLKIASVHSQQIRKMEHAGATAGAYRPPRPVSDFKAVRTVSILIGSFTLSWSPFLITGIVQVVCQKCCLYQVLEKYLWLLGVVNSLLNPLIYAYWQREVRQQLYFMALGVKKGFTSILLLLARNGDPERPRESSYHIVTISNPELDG
How it was run: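 Hamster HIT-T15 cells (60,000/well) were treated next day with compound at six concentrations, 0.0032–10 μM, for 1 h at 37° C. Cells were then lysed and cAMP measured by competitive HTRF immunoassay (D2-cAMP, cryptate anti-cAMP). Activity was derived as the change in FRET signal relative to DMSO.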

[3] = 1 hour at 37° C., six concentrations 0.0032 to 10 μM, read-out: EC50

Compound	changes in weights of rats (weight-loss effect) [1]	EC50 [2, 3] [nM]	EC50 ([2]; Table 2, read-out: EC50 value) [nM]
CC(C)CC(N(C)C)C1(c2ccc(Cl)cc2)CCC1 (stereo not shown) [Comparative Example 4, Sibutramine]	weight loss was observed for 2 weeks; also recorded: the weight rather increased after 2 weeks	–	–
CCc1cnc(N2CCC(COc3ccc(C4=CCC(C(=O)NCCO)CC4)cc3F)CC2)nc1 (stereo not shown) [Example 313, 4-(4-((1-(5-ethylpyrimidin-2-yl)piperidin-4-yl)methoxy)-3-fluorophenyl)-N-(2-hydroxyethyl)cyclohex-3-enecarboxamide]	–	120	–
CC(C)c1noc(N2CCC(COc3ccc(C4=CCC(C(=O)NC5CC5)CC4)cc3F)CC2)n1 (stereo not shown) [Example 363, N-cyclopropyl-4-(3-fluoro-4-((1-(3-isopropyl-1,2,4-oxadiazol-5-yl)piperidin-4-yl)methoxy)phenyl)cyclohex-3-enecarboxamide]	–	110	–
CCc1cnc(N2CCC(COc3ccc(C4=CCC(C(=O)NC5CC5)CC4)cc3F)CC2)nc1 (stereo not shown) [Example 302, N-cyclopropyl-4-(4-((1-(5-ethylpyrimidin-2-yl)piperidin-4-yl)methoxy)-3-fluorophenyl)cyclohex-3-enecarboxamide]	–	110	–
O=C(Oc1ccccc1)N1CCC(COc2ccc(C3=CCC(C(=O)N4CCCC4)CC3)cc2F)CC1 (stereo not shown) [Example 403, phenyl 4-((2-fluoro-4-(4-(pyrrolidine-1-carbonyl)cyclohex-1-enyl)phenoxy)methyl)piperidine-1-carboxylate]	–	22	≤ 50
CCc1cnc(N2CCC(COc3ccc(C4=CCC(C(=O)N5CCC(F)(F)C5)CC4)c(F)c3)CC2)nc1 (single isomer, unassigned; (+)) [Example 462, (+)-(3,3-difluoropyrrolidin-1-yl)(4-(4-((1-(5-ethylpyrimidin-2-yl)piperidin-4-yl)methoxy)-2-fluorophenyl)cyclohex-3-enyl)methanone]	–	14	≤ 50
CCc1cnc(N2CCC(COc3ccc(C4=CCC(C(=O)N5CCC(C(N)=O)CC5)CC4)cc3F)CC2)nc1 (stereo not shown) [Example 324, 1-(4-(4-((1-(5-ethylpyrimidin-2-yl)piperidin-4-yl)methoxy)-3-fluorophenyl)cyclohex-3-enecarbonyl)piperidine-4-carboxamide]	–	27	≤ 50
CCc1cnc(N2CCC(COc3ccc(C4=CCC(C(=O)N5CCSCC5)CC4)cc3C#N)CC2)nc1 (stereo not shown) [Example 389, 2-((1-(5-ethylpyrimidin-2-yl)piperidin-4-yl)methoxy)-5-(4-(thiomorpholine-4-carbonyl)cyclohex-1-enyl)benzonitrile]	–	68	–
CC(C)c1noc(N2CCC(COc3ccc(C4=CCC(C(=O)NC5CCC5)CC4)cc3F)CC2)n1 (stereo not shown) [Example 364, N-cyclobutyl-4-(3-fluoro-4-((1-(3-isopropyl-1,2,4-oxadiazol-5-yl)piperidin-4-yl)methoxy)phenyl)cyclohex-3-enecarboxamide]	–	85	–
CCc1cnc(N2CCC(COc3ccc(C4=CCC(C(=O)N5CCOCC5)CC4)cc3C)CC2)nc1 (stereo not shown) [Example 417, (4-(4-((1-(5-ethylpyrimidin-2-yl)piperidin-4-yl)methoxy)-3-methylphenyl)cyclohex-3-enyl)(morpholino)methanone]	–	50	≤ 50
CC(C)c1noc(N2CCC(COc3ccc(C4=CCC(C(=O)N5CCOCC5)CC4)c(F)c3)CC2)n1 (stereo not shown) [Example 448, (4-(2-fluoro-4-((1-(3-isopropyl-1,2,4-oxadiazol-5-yl)piperidin-4-yl)methoxy)phenyl)cyclohex-3-enyl)(morpholino)methanone]	–	25	≤ 50
CC(C)c1noc(N2CCC(COc3ccc(C4=CCC(C(=O)N5CC(O)C5)CC4)cc3F)CC2)n1 (stereo not shown) [Example 334, (4-(3-fluoro-4-((1-(3-isopropyl-1,2,4-oxadiazol-5-yl)piperidin-4-yl)methoxy)phenyl)cyclohex-3-enyl)(3-hydroxyazetidin-1-yl)methanone]	–	52	–
CCc1cnc(N2CCC(COc3ccc(C4=CCC(C(=O)N5CCC(F)(F)CC5)CC4)c(F)c3)CC2)nc1 (stereo not shown) [Example 453, (4,4-difluoropiperidin-1-yl)(4-(4-((1-(5-ethylpyrimidin-2-yl)piperidin-4-yl)methoxy)-2-fluorophenyl)cyclohex-3-enyl)methanone]	–	12	≤ 50
CCc1cnc(N2CCC(COc3ccc(C4=CCC(C(=O)N5CC[C@H](F)C5)CC4)cc3)CC2)nc1 (single isomer, unassigned; (-)) [Example 458]	–	12	–
CCc1cnc(N2CCC(COc3ccc(C4=CCC(C(=O)N5CCCC5)CC4)cc3C#N)CC2)nc1 (stereo not shown) [Example 386, 2-((1-(5-ethylpyrimidin-2-yl)piperidin-4-yl)methoxy)-5-(4-(pyrrolidine-1-carbonyl)cyclohex-1-enyl)benzonitrile]	–	64	–
O=C(NCCO)C1CC=C(c2ccc(OCC3CCN(c4ccccn4)CC3)cc2)CC1 (stereo not shown) [Example 358, N-(2-hydroxyethyl)-4-(4-((1-(pyridin-2-yl)piperidin-4-yl)methoxy)phenyl)cyclohex-3-enecarboxamide]	–	190	–
CCc1cnc(N2CCC(COc3ccc(C4=CCC(C(=O)N(CC)CCO)CC4)c(F)c3)CC2)nc1 (stereo not shown) [Example 438, N-ethyl-4-(4-((1-(5-ethylpyrimidin-2-yl)piperidin-4-yl)methoxy)-2-fluorophenyl)-N-(2-hydroxyethyl)cyclohex-3-enecarboxamide]	–	23	≤ 50
CCc1cnc(N2CCC(COc3ccc(C4=CCC(C(=O)N5CCN(CCCO)CC5)CC4)cc3)CC2)nc1 (stereo not shown) [Example 380, (4-(4-((1-(5-ethylpyrimidin-2-yl)piperidin-4-yl)methoxy)phenyl)cyclohex-3-enyl)(4-(3-hydroxypropyl)piperazin-1-yl)methanone]	–	79	–
CCc1cnc(N2CCC(COc3ccc(C4=CCC(C(=O)N5CCOCC5)CC4)cn3)CC2)nc1 (stereo not shown) [Example 351, (4-(6-((1-(5-ethylpyrimidin-2-yl)piperidin-4-yl)methoxy)pyridin-3-yl)cyclohex-3-enyl)(morpholino)methanone]	–	41	≤ 50
CCc1cnc(N2CCC(COc3ccc(C4=CCC(C(=O)N5CCC5)CC4)cc3C#N)CC2)nc1 (stereo not shown) [Example 387, 5-(4-(azetidine-1-carbonyl)cyclohex-1-enyl)-2-((1-(5-ethylpyrimidin-2-yl)piperidin-4-yl)methoxy)benzonitrile]	–	79	–
CC(C)c1noc(N2CCC(COc3ccc(C4=CCC(C(=O)N5CCN(C)CC5)CC4)cc3F)CC2)n1 (stereo not shown) [Example 382, (4-(3-fluoro-4-((1-(3-isopropyl-1,2,4-oxadiazol-5-yl)piperidin-4-yl)methoxy)phenyl)cyclohex-3-enyl)(4-methylpiperazin-1-yl)methanone]	–	42	≤ 50
CCc1cnc(N2CCC(COc3ccc(C4=CCC(C(=O)N5CCC(CCO)CC5)CC4)cc3F)CC2)nc1 (single isomer, unassigned; (-)) [Example 430, (−)-(4-(4-((1-(5-ethylpyrimidin-2-yl)piperidin-4-yl)methoxy)-3-fluorophenyl)cyclohex-3-enyl)(4-(2-hydroxyethyl)piperidin-1-yl)methanone]	–	9	≤ 50
CC(C)c1noc(N2CCC(COc3ccc(C4=CCC(C(=O)N5CCN(CCCO)CC5)CC4)cc3F)CC2)n1 (stereo not shown) [Example 368, (4-(3-fluoro-4-((1-(3-isopropyl-1,2,4-oxadiazol-5-yl)piperidin-4-yl)methoxy)phenyl)cyclohex-3-enyl)(4-(3-hydroxypropyl)piperazin-1-yl)methanone]	–	48	≤ 50
CC(C)(C)OC(=O)N1CCC(COc2ccc(C3=CCC(C(=O)N4CCOCC4)CC3)cc2F)CC1 (single isomer, unassigned; (+)) [Example 442, (+)-tert-butyl 4-((2-fluoro-4-(4-(morpholine-4-carbonyl)cyclohex-1-enyl)phenoxy)methyl)piperidine-1-carboxylate]	–	8	≤ 50
CC(C)c1noc(N2CCC(COc3ccc(C4=CCC(C(=O)N5CCC5)CC4)cn3)CC2)n1 (stereo not shown) [Example 339, azetidin-1-yl(4-(6-((1-(3-isopropyl-1,2,4-oxadiazol-5-yl)piperidin-4-yl)methoxy)pyridin-3-yl)cyclohex-3-enyl)methanone]	–	120	–

From patent US10723699B2 (Hyundai Pharm Co., Ltd., priority 2015, dated 2020)
